The text below walks through data of US10370401B2, “Substituted nucleosides, nucleotides and analogs thereof” (Alios BioPharma, Inc., priority 2013, dated 2019).

The structures appear in SMILES notation. pIC50: −log10 of the molar value. A value given as a limit tells only on which side of the number the result lay.

Broadly, the pIC50 is the negative decadic logarithm of the IC50, by convention in mol/L.

The target in assay [1] is dengue virus NS5 polymerase domain (DENVpol, serotype 2, New Guinea C strain) (Dengue virus type 2, UniProt P14340). Briefly: Dengue virus polymerase inhibition assay. The class given is biochemical. The note with it: DENVpol serotype 2, 3 hours at 30° C., mean of several independent experiments. As to the method: The enzyme activity of dengue virus NS5 polymerase domain (DENVpol, serotype 2, New Guinea C strain) was measured as an incorporation of tritiated NMP into acid-insoluble RNA products. DENVpol assay reactions contained 100 nM recombinant enzyme, 50 nM heteropolymeric RNA, about 0.5 μCi tritiated NTP, 0.33 μM of competing cold NTP, 40 mM HEPES (pH 7.5), 3 mM dithiothreitol, and 2 mM MgCl2. Standard reactions were incubated for 3 hours at 30° C., in the presence of increasing concentration of inhibitor. At the end of the reaction, RNA was precipitated with 10% TCA, and acid-insoluble RNA products were filtered on a size exclusion 96-well plate. After washing of the plate, scintillation liquid was added and radiolabeled RNA products were detected according to standard procedures with a Trilux Topcount scintillation counter. The compound concentration at which the enzyme-catalyzed rate was reduced by 50% (IC50) was calculated by fitting the data to a non-linear regression (sigmoidal).

The target of assay [2] is human rhinovirus 16 polymerase (HRV16pol) (Human rhinovirus 16, UniProt Q82122). Briefly: biochemical. The note with it: HRV16pol, 2.5 h at 30° C., mean of several independent experiments; read-out: IC50.
Chain of human rhinovirus 16 polymerase (HRV16pol) (Q82122 1694-2153 limits assumed): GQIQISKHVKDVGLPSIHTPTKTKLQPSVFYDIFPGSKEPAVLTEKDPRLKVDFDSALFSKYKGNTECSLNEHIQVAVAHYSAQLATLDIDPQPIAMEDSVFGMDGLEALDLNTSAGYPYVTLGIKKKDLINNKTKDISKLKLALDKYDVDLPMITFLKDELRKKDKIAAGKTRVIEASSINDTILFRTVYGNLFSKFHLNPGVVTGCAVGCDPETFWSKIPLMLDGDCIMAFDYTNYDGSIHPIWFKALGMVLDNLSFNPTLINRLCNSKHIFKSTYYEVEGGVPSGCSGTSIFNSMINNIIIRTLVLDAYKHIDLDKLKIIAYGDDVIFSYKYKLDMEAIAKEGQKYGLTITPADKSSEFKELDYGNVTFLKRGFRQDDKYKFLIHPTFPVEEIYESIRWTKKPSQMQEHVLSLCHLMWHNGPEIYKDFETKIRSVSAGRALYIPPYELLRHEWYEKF
A further assay deals with NS5B570-Con1 (Delta-21) (Hepatitis C virus genotype 1b, UniProt Q9WMX2). In words: biochemical. More on the design: species or system HCV.

As to `C[C@]1(O)[C@H](n2ccc(=O)[nH]c2=O)O[C@](F)(COP(=O)(O)OP(=O)(O)OP(=O)(O)O)[C@H]1O` [Compound 110], the pIC50 is over 6.00 in assay [1] and over 5.00 in assay [2].

On to `C[C@]1(F)[C@H](n2cnc3c(=O)[nH]c(N)nc32)O[C@](F)(COP(=O)(O)OP(=O)(O)OP(=O)(O)O)[C@H]1O` [compound 19], for which the pIC50 was over 5.00 in assay [1], over 6.00 on NS5B570-Con1 (Delta-21) and over 6.00 in assay [2].

With `C[C@]1(F)[C@H](n2ccc(N)nc2=O)O[C@](F)(COP(=O)(O)OP(=O)(O)OP(=O)(O)O)[C@H]1O` [compound 29], the negative-log IC50 (pIC50) in assay [1] and in assay [2] was over 6.00 throughout.

In the case of `C[C@@]1(O)[C@H](O)[C@@](CF)(COP(=O)(O)OP(=O)(O)OP(=O)(O)O)O[C@H]1n1cnc2c(=O)[nH]c(N)nc21` [compound 34], the negative-log IC50 (pIC50) (in assay [1]; on NS5B570-Con1 (Delta-21); in assay [2]) was over 6.00 each time.

Take `C[C@@]1(O)[C@H](O)[C@@](CF)(COP(=O)(O)OP(=O)(O)OP(=O)(O)O)O[C@H]1n1ccc(N)nc1=O` [compound 91]: the results for the negative-log IC50 (pIC50) (in assay [1]; against NS5B570-Con1 (Delta-21); in assay [2]) were over 4.00, over 6.00 and over 5.00, respectively.

Regarding `C[C@@]1(O)[C@H](O)[C@@](CF)(COP(=O)(O)OP(=O)(O)OP(=O)(O)O)O[C@H]1n1ccc(=O)[nH]c1=O` [compound 92], the pIC50 in assay [1] is over 5.00; against NS5B570-Con1 (Delta-21), over 6.00; in assay [2], over 6.00.

Take `C[C@]1(O)[C@H](n2cnc3c(=O)[nH]c(N)nc32)O[C@](F)(COP(=O)(O)OP(=O)(O)OP(=O)(O)O)[C@H]1F` [compound 101]: the negative logarithm of the IC50 (pIC50) in assay [1] was over 5.00; on NS5B570-Con1 (Delta-21), over 6.00; in assay [2] it was over 6.00.

On to `C#C[C@]1(O)[C@H](n2cnc3c(=O)[nH]c(N)nc32)O[C@](F)(COP(=O)(O)OP(=O)(O)OP(=O)(O)O)[C@H]1F` [compound 103], for which the negative logarithm of the IC50 (pIC50) (in assay [1]; against NS5B570-Con1 (Delta-21); in assay [2]) was over 6.00 each time.

As for `C#C[C@]1(O)[C@H](n2ccc(=O)[nH]c2=O)O[C@](F)(COP(=O)(O)OP(=O)(O)OP(=O)(O)O)[C@H]1O` [compound 114], the values for the pIC50 in assay [1] and in assay [2] were over 5.00 and over 6.00, respectively.

In the case of `C#C[C@]1(O)[C@H](n2cnc3c(=O)[nH]c(N)nc32)O[C@](F)(COP(=O)(O)OP(=O)(O)OP(=O)(O)O)[C@H]1O` [compound 115], the pIC50 in assay [1] and in assay [2] was over 6.00 throughout.

As to `C#C[C@]1(F)[C@H](n2cnc3c(=O)[nH]c(N)nc32)O[C@](F)(COP(=O)(O)OP(=O)(O)OP(=O)(O)O)[C@H]1O` [compound 123], the pIC50 in assay [1] is over 5.00; in assay [2], over 6.00.

On to `C[C@]1(O)[C@H](n2ccc(N)nc2=O)O[C@](F)(COP(=O)(O)OP(=O)(O)OP(=O)(O)O)[C@H]1O` [compound 124], for which the pIC50 in assay [1] is over 5.00; in assay [2] it was over 6.00.

For `C[C@]1(Cl)[C@H](n2ccc(=O)[nH]c2=O)O[C@](F)(COP(=O)(O)OP(=O)(O)OP(=O)(O)O)[C@H]1O` [compound 149], the values for the pIC50 (in assay [1]; at NS5B570-Con1 (Delta-21)) were over 5.00 and over 6.00, respectively.

As to `C[C@@]1(F)[C@H](O)[C@@](CF)(COP(=O)(O)OP(=O)(O)OP(=O)(O)O)O[C@H]1n1cnc2c(=O)[nH]c(N)nc21` [compound 162], the pIC50 in assay [1] was over 5.00; at NS5B570-Con1 (Delta-21), 5.00 to 6.00; in assay [2], over 6.00.

The compound `Nc1nc2c(ncn2[C@@H]2O[C@](F)(COP(=O)(O)OP(=O)(O)OP(=O)(O)O)[C@@H](O)[C@H]2F)c(=O)[nH]1` [compound 163] showed a negative-log IC50 (pIC50) in assay [1] of over 5.00.

In assay [1], `Nc1ccn([C@@H]2O[C@](CCl)(COP(=O)(O)OP(=O)(O)OP(=O)(O)O)[C@@H](O)[C@H]2O)c(=O)n1` [compound 164] had a pIC50 of over 4.00.
